For test [1], the system named is VSV-G pseudotyped lentiviral vector (VG). The format is cell-based.
Test [2] has the same test system. The class given is cell-based. This is another data set of the same source.

In the case of `Cc1ccnc2c1NC(=O)c1cccnc1N2C1CC1` [Nevirapine], in test [1], the “determination of VCN based on assay of the WPRE amplicon” value is “not substantially impacted”. In addition, the “determination of VCN based on assay of the DelU3 amplicon” value in test [2] is “completely ablated”.

(Values after patent US20250230511A1, “METHODS AND REAGENTS FOR […] VECTOR NUCLEIC ACID PRODUCTS” (Sana Biotechnology, Inc., priority 2021, published 2025).)
